Type in all cases: cell-based, human
Assay [1] deals with Rx::Venus-positive cells (KhES-1-derived). The assay is described as follows: Maintenance culture of retinal cell in Rx::Venus strain (Example 13). The following applies: 20 ng/ml continuously added; after 34 days. As to the method:
The aggregates of Day 31 from initiation of the suspension culture prepared as in Example 1 were washed with PBS, and a neuronal cell dispersion solution (manufactured by FUJIFILM Wako Pure Chemical Corp.) was added. After incubation at 37° C., they were dispersed into single cells by pipetting.
After 34 days, cell sheets were fixed in 4% PFA, and the nuclei were stained using DAPI. Observation was made focusing on the areas of Rx::Venus-positive cells, and the state of maintenance of retinal cells was studied.

For assay [2], the system named is Rx::Venus-sorted cells (KhES-1-derived NR, Day 25). The assay is described as follows: Search of factor that maintains property of retina at preparation into sheet again (Example 18). To be noted: compared with PBS control; 10 days after seeding. As for the experimental part: The aggregates (NR) of Day 25 from initiation of the suspension culture prepared in Example 1 were washed with PBS, and a neuronal cell dispersion solution (manufactured by FUJIFILM Wako Pure Chemical Corp.) was added. After incubation at 37° C., they were dispersed into single cells by pipetting, and sorting was carried out with Rx::Venus as an index using Cell sorter ARIAII (Becton, Dickinson and Company).
3 days after seeding, the medium was similarly replaced so as to maintain the concentrations of the low-molecular compounds or the proteins described in Tables 1 and 2. […] 10 days after seeding, fixation was performed in 4% PFA, and the evaluation of the cells after sorting was conducted with Rx::Venus as an index under a fluorescence microscope (BZ-X810 manufactured by Keyence Corp.).

For assay [3], the system named is single cells dispersed from KhES-1- and 1231A3-derived aggregates. The assay is described as follows: Aggregate proliferation-promoting factor: aggregate area in suspension culture with Y-27632 (Example 2). The following applies: SAG 300 nM or CHIR99021 3 μM in addition to 10 μM Y-27632; Day 1, 7, 14. As to the method:
The aggregates of Day 20 (1231A3) and Day 27 (KhES-1) from initiation of the suspension culture prepared as in Example 1 were washed with PBS, and a neuronal cell dispersion solution (manufactured by FUJIFILM Wako Pure Chemical Corp.) was added. After incubation at 37° C., they were dispersed into single cells by pipetting. These cells were suspended in 100 μL of a serum-free medium containing 10 μM Y-27632 (FUJIFILM Wako Pure Chemical Corp.) so as to become 2 to 5×10^5 cells per well of a non-cell adhesive 96-well culture plate (trade name: PrimeSurface 96-well V-bottom plate, manufactured by Sumitomo Bakelite Co., Ltd.), and suspension-cultured at 37° C. and 5% CO2. […] The reformed states of the aggregates were observed under a bright field microscope and a fluorescence microscope (BZ-X810 manufactured by Keyence Corp.) on Day 1, Day 7, and Day 14 after suspension culture for aggregate reforming. The areas of the aggregates were measured in Image J. The results of the KhES-1-derived cells are shown in FIG. 6 (an average value from 12 […] measured). The results of the 1231A3-derived cells in which the reformed states of the aggregates of Day 1 after suspension culture were observed are shown in FIG. 7.

The test system of assay [4] is single cell suspension of dispersed retinal cells (KhES-1-derived). The assay is described as follows: Layer structure formation-promoting factor: reformed aggregates, immunostained sections (Example 3). The following applies: 300 nM SAG in addition to 3 μM CHIR99021. As to the method: The aggregates of Day 26 from initiation of the suspension culture prepared as in Example 1 were washed with PBS, and a neuronal cell dispersion solution (manufactured by FUJIFILM Wako Pure Chemical Corp.) was added. After incubation at 37° C., they were dispersed into single cells by pipetting. These cells were suspended in 100 μL of a serum-free medium so as to become 3.0×10^4 cells per well of a non-cell adhesive 96-well culture plate (trade name: PrimeSurface 96-well V-bottom plate, manufactured by Sumitomo Bakelite Co., Ltd.), and suspension-cultured at 37° C. and 5% CO2.
The aggregates of Day 15 (corresponding to Differentiation Day 41) and Day 28 (corresponding to Differentiation Day 54) after suspension culture for aggregate reforming were fixed in 4% PFA, and frozen sections were prepared. These frozen sections were subjected to immunostaining using DAPI and anti-Chx10 antibody (trade name: Anti CHX10 Antibody, Exalpha Biologicals Inc.), anti-β-catenin antibody (R&D Systems, Inc.), anti-collagen IV antibody (Abcam plc), anti-Zo-1 antibody (Invitrogen Corp.), anti-Ki67 antibody (Becton, Dickinson and Company), anti-Pax6 antibody (BioLegend, Inc.), anti-RxR-γ (RxRg) antibody (Spring Bioscience Corp.), anti-CRX antibody (Abnova Corp.), anti-NRL antibody (R&D Systems, Inc.), anti-recoverin antibody (manufactured by Proteintech Group, Inc.), anti-Islet-1 antibody (Developmental Studies Hybridoma Bank (DSHB)), anti-GS antibody (Sigma-Aldrich Co., LLC), anti-Brn3 antibody (Santa Cruz Biotechnology), and anti-calretinin antibody (R&D Systems, Inc.).
These immunostained sections were observed under a bright field microscope and a fluorescence microscope (BZ-X810 manufactured by Keyence Corp.) and a confocal laser scanning fluorescence microscope (SP-8 manufactured by Leica), and the results are shown in FIGS. 11 to 20. […] From FIGS. 19 and 20, it was confirmed that RxR-Y(RxRg)-positive and CRX-positive cone progenitor cells and recoverin-positive and CRX-positive photoreceptor progenitor cells were differentiated, and the differentiation of Islet-1-positive and Brn3-positive retinal ganglion cells and calretinin-positive amacrine cells was also confirmed.

For assay [5], the system named is KhES-1 Rx::Venus aggregates (NR) of Day 26. The assay is described as follows: CD39 expression analysis with different concentrations of SAG at start of differentiation (Example 24). As to the method:
The morphology of aggregates (NR) of Day 26 from initiation of the suspension culture prepared by adding (1) 0 nM, (2) 30 nM, or (3) 300 nM SAG at the start of differentiation was observed under a microscope.
The aggregates were dispersed into single cells using a neuronal cell dispersion solution, and FACS analysis was conducted as to the expression of CD39 and CXCR4 using anti-CD39-APC conjugate antibody (Miltenyi Biotec) and anti-CXCR4-APC conjugate antibody (Miltenyi Biotec). The percentage of an expressing cell population was measured using FACSCantoII (BD Biosciences), and analysis was conducted using FlowJo. These aggregates were fixed in 4% PFA, and sections were prepared and then subjected to staining using anti-ALDH1A1 antibody (R&D Systems, Inc.), anti-CoupTF1 antibody (Perseus Proteomics Inc. (PPMX)), anti-LHX2 antibody (manufactured by Merck Millipore), anti-Chx10 antibody (manufactured by Exalpha Biologicals Inc.), anti-Pax2 antibody (manufactured by Covance), and anti-NKX2.1 antibody (manufactured by Leica).

Assay [6] has as its system aggregates (NR), KhES-1-derived neural retinal tissues. In words: Study on enhancement in CD39 expression, FACS (Example 25). To be noted: added Day 17 to Day 25; DMSO control. As for the experimental part:
For aggregates (NR) prepared by adding 300 nM SAG at the start of differentiation (dd0), 10 neural retinal tissues were transferred to low adhesive 60-mm Petri dish for suspension culture (manufactured by Sumitomo Bakelite Co., Ltd.) on Day 17 from initiation of the suspension culture. 1 mM or 0.2 mM adenosine (A2A receptor agonist, manufactured by Sigma-Aldrich Co. LLC), 1 mM, 0.2 mM, or 0.04 mM AMP-PNP (manufactured by Tocris Bioscience), 5 mM, 1 mM, 0.2 mM, or 0.04 mM ATP disodium salt (manufactured by Tocris Bioscience), and 1μ, 0.2μ, or 0.04μ M CGS 21680 (Adenosine A2A Receptor Agonist, manufactured by Tocris Bioscience) were added into 4 mL of NucT0 medium. Culture was performed up to Day 25 from initiation of the suspension culture. Change in expression of CD39 and CXCR4 was stained using Mouse IgG1-APC conjugate antibody (Miltenyi Biotec), anti-CD39-BV421 conjugate antibody (BD Biosciences) and anti-CXCR4-APC conjugate antibody (Miltenyi Biotec) and measured using FACSCantoII (BD Biosciences), and analysis was conducted using FlowJo. As a control, a DMSO addition group was established.

Turning to “FGF2: fibroblast growth factor, FGF signaling pathway agonist”, the “maintenance of Rx::Venus-positive cells” value in assay [1] is listed as “Rx::Venus-positive cells were widely maintained”. Further, the “expression intensity of Rx::Venus” value in assay [2] was “high expression intensity of Rx::Venus”.
As for `CNC1CCC(N(Cc2cccc(-c3ccncc3)c2)C(=O)c2sc3ccccc3c2Cl)CC1` (stereo not shown) [SAG], the “size of reformed aggregates versus only Y-27632” value in assay [3] was “larger aggregates were reformed”. Further, in assay [4], the size of aggregates entry is reported as “aggregates were larger”. For the same molecule, the morphology of aggregates result in assay [5] (0 nM and 30 nM SAG compared with 300 nM SAG at dd0, Day 26) was “aggregates were larger and a layer structure was clearer”. Moreover, in assay [5] (300 nM SAG at dd0), the “expression of CD39 (FACS)” value is given as “CD39 was expressed” and the “expression of CXCR4 (FACS)” value is “low expression of CXCR4 was observed”. For the same molecule, in assay [5] (addition of SAG on dd0), the “expression of dorsal marker ALDH1A1” value is on record as “Decrease in expression of a dorsal marker ALDH1A1” and the “expression of ventral marker CoupTF1” value was “increase in expression of a ventral marker CoupTF1”.
On to `O=C(Nc1cccc2cccnc12)c1ccc(N2C(=O)[C@@H]3[C@H](C2=O)[C@@H]2C=C[C@H]3C2)cc1` [IWR1 endo, 4-[(3aR,4S,7R,7aS)-1,3,3a,4,7,7a-hexahydro-1,3-dioxo-4,7-methano-2H-isoindol-2-yl]-N-8-quinolinyl-benzamide, reference compound], for which the “expression intensity of Rx::Venus” value in assay [2] is on record as “high expression intensity of Rx::Venus”.
Consider EGF: growth factor added at 20 ng/ml, for which the “maintenance of Rx::Venus-positive cells” value in assay [1] was “Rx::Venus-positive cells were widely maintained”.
As to `Nc1ncnc2c1ncn2[C@@H]1O[C@H](COP(=O)(O)OP(=O)([O-])OP(=O)([O-])O)[C@@H](O)[C@H]1O.[Na+].[Na+]` [ATP], in assay [6], the “expression of CD39 (FACS)” value is reported as “enhancing the expression of CD39” and the “expression of CXCR4 (FACS)” value was “decreasing the expression of CXCR4”.

(Values after patent US20250019652A1, “PRODUCTION METHOD FOR SHEET-LIKE RETINAL TISSUE” (RIKEN, priority 2021, published 2025).)
